# From ChEMBL document CHEMBL3885881, “DrugMatrix”
# Species on record: Rattus norvegicus
# Assay: DrugMatrix - Regimen: Daily Repeat
# Type: toxicity, organism-based, Sprague-Dawley
# Set-up: regimen Daily Repeat, gender Male, age 6-8 weeks
# Conditions: in vivo, po, route oral GAVAGE, vehicle .5 % CMC; for TOTAL PROTEIN / ALANINE AMINOTRANSFERASE / ALBUMIN / ALKALINE PHOSPHATASE / ASPARTATE AMINOTRANSFERASE / BLOOD UREA NITROGEN / CARBON DIOXIDE / CHLORIDE / CHOLESTEROL / CREATINE PHOSPHOKINASE / CREATININE / GLUCOSE / LACTATE DEHYDROGENASE / LIPASE / POTASSIUM / SODIUM / TOTAL BILIRUBIN: tissue Plasma; for ABSOLUTE BASOPHIL / ABSOLUTE EOSINOPHIL / ABSOLUTE LYMPHOCYTE / ABSOLUTE MONOCYTE / ABSOLUTE SEGMENTED NEUTROPHIL / BASOPHIL / EOSINOPHIL / ERYTHROCYTE COUNT / HEMATOCRIT / HEMOGLOBIN / LEUKOCYTE COUNT / LYMPHOCYTE / MEAN CORPUSCULAR HEMOGLOBIN / MEAN CORPUSCULAR HEMOGLOBIN CONCENTRATION / MEAN CORPUSCULAR VOLUME / MONOCYTE / NEUTROPHIL / NUCLEATED RED BLOOD CELLS / PLATELET COUNT: tissue Blood
# [1] = 150 mg/kg, 120 h, dose level Low, time 5 day
# [2] = 2000 mg/kg, 72 h, dose level High, time 3 day
# [3] = 2000 mg/kg, 120 h, dose level High, time 5 day
smiles,measurement,setting,value
C[C@@H]1CC[C@H]2[C@@H](C)C(=O)O[C@@H]3O[C@@]4(C)CC[C@@H]1[C@]32OO4 [ARTEMISININ],TOTAL PROTEIN,"150 mg/kg, 72 h, dose level Low, time 3 day",6.7 G/DL
same,ABSOLUTE BASOPHIL,[1],0 CELLS/uL
same,ABSOLUTE EOSINOPHIL,[1],0 CELLS/uL
same,ABSOLUTE LYMPHOCYTE,[1],11615.67 CELLS/uL
same,ABSOLUTE MONOCYTE,[1],298.33 CELLS/uL
same,ABSOLUTE SEGMENTED NEUTROPHIL,[1],986 CELLS/uL
same,BASOPHIL,[1],0%
same,EOSINOPHIL,[1],0%
same,ERYTHROCYTE COUNT,[1],5.22 x10E6/uL
same,HEMATOCRIT,[1],33.07%
same,HEMOGLOBIN,[1],12.77 G/DL
same,LEUKOCYTE COUNT,[1],12.9 x10E3/uL
same,LYMPHOCYTE,[1],90%
same,MEAN CORPUSCULAR HEMOGLOBIN,[1],24.43 pg
same,MEAN CORPUSCULAR HEMOGLOBIN CONCENTRATION,[1],38.63 G/DL
same,MEAN CORPUSCULAR VOLUME,[1],63.33 fL
same,MONOCYTE,[1],2.33%
same,NEUTROPHIL,[1],7.67%
same,NUCLEATED RED BLOOD CELLS,[1],0 /100WBC
same,PLATELET COUNT,[1],1315 x10E3/uL
same,ALANINE AMINOTRANSFERASE,[1],48.67 u/L
same,ALBUMIN,[1],3.93 G/DL
same,ALKALINE PHOSPHATASE,[1],408.33 u/L
same,ASPARTATE AMINOTRANSFERASE,[1],87.67 u/L
same,BLOOD UREA NITROGEN,[1],18 mg/dL
same,CARBON DIOXIDE,[1],27 mmol/L
same,CHLORIDE,[1],101 MEQ/L
same,CHOLESTEROL,[1],71.67 mg/dL
same,CREATINE PHOSPHOKINASE,[1],464 u/L
same,CREATININE,[1],0.19 mg/dL
same,GLUCOSE,[1],139.33 mg/dL
same,LACTATE DEHYDROGENASE,[1],476 u/L
same,LIPASE,[1],10 u/L
same,POTASSIUM,[1],6.65 MEQ/L
same,SODIUM,[1],141.93 MEQ/L
same,TOTAL BILIRUBIN,[1],0.2 mg/dL
same,TOTAL PROTEIN,[1],5.93 G/DL
same,ABSOLUTE BASOPHIL,[2],0 CELLS/uL
same,ABSOLUTE EOSINOPHIL,[2],274 CELLS/uL
same,ABSOLUTE LYMPHOCYTE,[2],15228 CELLS/uL
same,ABSOLUTE MONOCYTE,[2],318.67 CELLS/uL
same,BASOPHIL,[2],0%
same,EOSINOPHIL,[2],1.67%
same,ERYTHROCYTE COUNT,[2],5.42 x10E6/uL
same,HEMATOCRIT,[2],33.43%
same,HEMOGLOBIN,[2],13.03 G/DL
same,LEUKOCYTE COUNT,[2],16.97 x10E3/uL
same,LYMPHOCYTE,[2],89%
same,MEAN CORPUSCULAR HEMOGLOBIN,[2],24.07 pg
same,MEAN CORPUSCULAR HEMOGLOBIN CONCENTRATION,[2],39 G/DL
same,MEAN CORPUSCULAR VOLUME,[2],61.67 fL
same,MONOCYTE,[2],2%
same,NEUTROPHIL,[2],7.33%
same,NUCLEATED RED BLOOD CELLS,[2],0 /100WBC
same,PLATELET COUNT,[2],1460 x10E3/uL
same,ALANINE AMINOTRANSFERASE,[2],59.67 u/L
same,ALBUMIN,[2],4 G/DL
same,ALKALINE PHOSPHATASE,[2],390 u/L
same,ASPARTATE AMINOTRANSFERASE,[2],112.33 u/L
same,BLOOD UREA NITROGEN,[2],19.67 mg/dL
same,CARBON DIOXIDE,[2],23.67 mmol/L
same,CHLORIDE,[2],101.67 MEQ/L
same,CHOLESTEROL,[2],97.67 mg/dL
same,CREATINE PHOSPHOKINASE,[2],581.33 u/L
same,CREATININE,[2],0.25 mg/dL
same,GLUCOSE,[2],144.33 mg/dL
same,LACTATE DEHYDROGENASE,[2],387.67 u/L
same,LIPASE,[2],12.33 u/L
same,POTASSIUM,[2],6.36 MEQ/L
same,SODIUM,[2],142.67 MEQ/L
same,TOTAL BILIRUBIN,[2],0.2 mg/dL
same,TOTAL PROTEIN,[2],6 G/DL
same,ABSOLUTE BASOPHIL,[3],0 CELLS/uL
same,ABSOLUTE EOSINOPHIL,[3],156.67 CELLS/uL
same,ABSOLUTE LYMPHOCYTE,[3],13145.33 CELLS/uL
same,ABSOLUTE MONOCYTE,[3],96 CELLS/uL
same,ABSOLUTE SEGMENTED NEUTROPHIL,[3],868.67 CELLS/uL
same,BASOPHIL,[3],0%
same,EOSINOPHIL,[3],1%
same,ERYTHROCYTE COUNT,[3],5.52 x10E6/uL
same,HEMATOCRIT,[3],33.57%
same,HEMOGLOBIN,[3],13.27 G/DL
same,LEUKOCYTE COUNT,[3],14.27 x10E3/uL
same,LYMPHOCYTE,[3],92%
same,MEAN CORPUSCULAR HEMOGLOBIN,[3],24.07 pg
same,MEAN CORPUSCULAR HEMOGLOBIN CONCENTRATION,[3],39.53 G/DL
same,MEAN CORPUSCULAR VOLUME,[3],60.87 fL
same,MONOCYTE,[3],0.67%
same,NEUTROPHIL,[3],6.33%
same,NUCLEATED RED BLOOD CELLS,[3],0.33 /100WBC
same,PLATELET COUNT,[3],1230 x10E3/uL
same,ALANINE AMINOTRANSFERASE,[3],52.67 u/L
same,ALBUMIN,[3],4.1 G/DL
same,ALKALINE PHOSPHATASE,[3],299.67 u/L
same,ASPARTATE AMINOTRANSFERASE,[3],83.33 u/L
same,BLOOD UREA NITROGEN,[3],19.33 mg/dL
same,CARBON DIOXIDE,[3],28.67 mmol/L
same,CHLORIDE,[3],104 MEQ/L
same,CHOLESTEROL,[3],75.33 mg/dL
same,CREATINE PHOSPHOKINASE,[3],308.33 u/L
same,CREATININE,[3],0.23 mg/dL
same,GLUCOSE,[3],133 mg/dL
same,LACTATE DEHYDROGENASE,[3],153.67 u/L
same,LIPASE,[3],10.33 u/L
same,POTASSIUM,[3],6.54 MEQ/L
same,SODIUM,[3],147.4 MEQ/L
same,TOTAL BILIRUBIN,[3],0.17 mg/dL
same,TOTAL PROTEIN,[3],6.1 G/DL
